The test system of assay [1] is Haemonchus contortus. Put plainly: Method A: screening of compounds against Haemonchus contortus L1 larvae in microtitre plate (development to L3). The settings on record: 96 h, 4 days assessment, 27° C., read-out: motility inhibition; for inhibition at 0.01 ppm: test concentration 0.01 ppm; for inhibition at 0.15 ppm: test concentration 0.15 ppm. How it is done: Method A: Screening Method to Test Activity of Compounds Against Haemonchus contortus. Twenty L1 Haemonchus contortus larvae were added to wells of a microtitre plate containing a nutrient medium and the test compound in DMSO. The microtitre plate was then held at 27° C. where the L1 larvae were allowed to develop. An analysis was conducted at 4 days to determine successful development to the L3 stage. Larvae exposed to DMSO and no test compound served as controls. Compounds numbers 3, 4, 6 and 8 gave at least 90% motility inhibition at a test concentration of 0.15 ppm at the 4 days assessment. Compounds numbers 1, 2, 5 and 7 gave at least 90% motility inhibition at a test concentration of 0.01 ppm at the 4 days assessment.

For assay [2], the system named is Haemonchus contortus. The experiment in a line: Method B: screening against Haemonchus contortus in vivo on Mongolian jirds (Meriones unguiculatus). The settings on record: oral gavage, dose as low as 1 or 10 mg/kg, necropsy 3 days after treatment, vs placebo control group. On the procedure: Method B: Screening Method to Test Activity of Compounds Against Haemonchus contortus in Vivo on Mongolian Jirds (Meriones unguiculatus). Mongolian jirds, at least five weeks old, were immunosuppressed and artificially infected with ca. 1000 ensheathed Haemonchus contortus third instar larvae. Six days after infection, the jirds were treated by oral gavage with the test compounds, dissolved in a mixture of 2 parts DMSO and 1 part polyethylene glycol (PEG400), at doses of 100 mg/kg and 10 mg/kg. Jirds treated only with the placebo (2 parts DMSO and 1 part PEG400) served as controls. On day 9 (3 days after treatment) the jirds were euthanized and necropsied for recovery of parasites from the stomach. Efficacy was calculated as the average % reduction in the number of worms in each test group compared with the average number of worms from the control group. […] Compound number 1, provided at least 95% reduction in nematode infestation at a dose as low as 1 or 10 mg/kg.

Some results are limits rather than exact numbers.

The inhibition is how much of the control response was suppressed. With `CC(Cn1nc2c(Cl)cc(Cl)c(Cl)c2n1)(NC(=O)c1ccc(OC(F)(F)F)cc1)C(N)=S` (stereo not drawn) [Compound 1, N-[1-Methyl-1-thiocarbamoyl-2-(4,5,7-trichloro-2H-benzotriazol-2-yl)-ethyl]-4-trifluoromethoxybenzamide], the inhibition at 0.01 ppm in the assay with Haemonchus contortus [1] is ≥ 90%. Further, in the assay with Haemonchus contortus [2], the “reduction in nematode infestation” value was “at least 95%”.

Regarding `CC(Cn1nc2c(Cl)cc(Cl)c(Cl)c2n1)(NC(=O)c1ccc(SC(F)(F)F)cc1)C(N)=S` (stereo not drawn) [Compound 2], in the assay with Haemonchus contortus [1], the inhibition at 0.01 ppm was ≥ 90%. Turning to `CC(COc1ccc(C#N)cc1C(F)(F)F)(NC(=O)c1ccc(OC(F)(F)F)cc1)C(N)=S` (stereo not drawn) [Compound 3, N-[2-(4-Cyano-2-trifluoromethylphenoxy)-1-methyl-1-thiocarbamoyl-ethyl]-4-trifluoromethoxybenzamide], the inhibition at 0.15 ppm in the assay on Haemonchus contortus [1] is ≥ 90%.

On to `CC(COc1ccc(C(N)=S)cc1C(F)(F)F)(NC(=O)c1ccc(OC(F)(F)F)cc1)C(N)=S` (stereo not drawn) [Compound 4, N-[1-Methyl-1-thiocarbamoyl-2-(4-thiocarbamoyl-2-trifluoromethylphenoxy)-ethyl]-4-trifluoromethoxybenzamide], for which the inhibition at 0.15 ppm in the assay on Haemonchus contortus [1] is ≥ 90%. In the case of `CC(COc1cc(C#N)ccc1C(F)(F)F)(NC(=O)c1ccc(SC(F)(F)F)cc1)C(N)=S` (stereo not drawn) [Compound 5], in the assay on Haemonchus contortus [1], the inhibition at 0.01 ppm is ≥ 90%.

Consider `CC(COc1cc(C(N)=S)ccc1C(F)(F)F)(NC(=O)c1ccc(SC(F)(F)F)cc1)C(N)=S` (stereo not drawn) [Compound 6], for which, in the assay with Haemonchus contortus [1], the inhibition at 0.15 ppm was ≥ 90%. Take `CC(COc1cc(C#N)ccc1C(F)(F)F)(NC(=O)c1ccc(OC(F)(F)F)cc1)C(N)=S` (stereo not drawn) [Compound 7, N-[2-(5-Cyano-2-trifluoromethylphenoxy)-1-methyl-1-thiocarbamoyl-ethyl]-4-trifluoromethoxybenzamide]: the inhibition at 0.01 ppm in the assay with Haemonchus contortus [1] is ≥ 90%. For `CC(COc1cc(C(N)=S)ccc1C(F)(F)F)(NC(=O)c1ccc(OC(F)(F)F)cc1)C(N)=S` (stereo not drawn) [Compound 8], the inhibition at 0.15 ppm in the assay on Haemonchus contortus [1] was ≥ 90%.

The values above are taken from US7964621B2, “Thioamide compounds, method of making and method of using thereof” (Merial Limited, priority 2008, dated 2011).
